# How the values were obtained:
# Type in all cases: biochemical
# recombinant human PREP = target: T1, recombinant human PREP (Homo sapiens, UniProt P48147); experiment: PREP inhibition, fluorogenic substrate Z-Gly-Pro-AMC; conditions: Inhibitory Activity (IC50, nM) PREP, recombinant human PREP
# T1 construct: purchased R&D System
# T1 sequence (P48147 1-710): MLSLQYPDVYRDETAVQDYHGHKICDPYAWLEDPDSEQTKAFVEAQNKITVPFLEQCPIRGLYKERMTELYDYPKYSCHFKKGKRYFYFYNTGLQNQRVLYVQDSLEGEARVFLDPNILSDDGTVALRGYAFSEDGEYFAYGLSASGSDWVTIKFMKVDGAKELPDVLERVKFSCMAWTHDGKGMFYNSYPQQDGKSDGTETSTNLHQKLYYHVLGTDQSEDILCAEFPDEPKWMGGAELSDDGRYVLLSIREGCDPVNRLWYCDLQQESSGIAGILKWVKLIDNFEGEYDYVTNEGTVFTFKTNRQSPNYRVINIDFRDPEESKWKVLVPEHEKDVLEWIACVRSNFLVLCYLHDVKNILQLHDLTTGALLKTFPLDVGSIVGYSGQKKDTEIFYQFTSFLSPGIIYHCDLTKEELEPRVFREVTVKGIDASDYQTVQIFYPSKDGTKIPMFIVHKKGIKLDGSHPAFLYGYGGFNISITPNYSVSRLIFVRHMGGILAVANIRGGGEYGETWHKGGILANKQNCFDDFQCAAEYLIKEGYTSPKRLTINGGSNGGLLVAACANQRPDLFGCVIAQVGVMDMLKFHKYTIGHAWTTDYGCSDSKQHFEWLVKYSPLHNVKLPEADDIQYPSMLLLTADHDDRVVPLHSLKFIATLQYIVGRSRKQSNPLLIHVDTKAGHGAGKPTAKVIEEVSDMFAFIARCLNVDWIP
# Procedure, shortened: (§1)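 Enzyme per reaction: 50 ng DPP9, 20 ng DPP8, 10 ng each DPP7 and PREP. Compounds were serially diluted (8 points, up to 0.5% DMSO) and incubated at 25 °C.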
# recombinant human DPP7 = target: T2, recombinant human DPP7 (Homo sapiens, UniProt Q9UHL4); experiment: DPP7 inhibition, fluorogenic substrate Lys-Pro-AMC; conditions: recombinant human DPP7
# T2 construct: purchased R&D Systems
# Procedure, shortened: as §1
# Recombinant human FAP = target: T3, Recombinant human FAP (Homo sapiens, UniProt Q12884); experiment: FAP FRET assay, FGF21-sequence FRET peptide substrate; conditions: FRET peptide with human FGF21 sequence, 6 μM, 37° C.
# T3 construct: purchased R&D systems
# T3 sequence (Q12884 1-760): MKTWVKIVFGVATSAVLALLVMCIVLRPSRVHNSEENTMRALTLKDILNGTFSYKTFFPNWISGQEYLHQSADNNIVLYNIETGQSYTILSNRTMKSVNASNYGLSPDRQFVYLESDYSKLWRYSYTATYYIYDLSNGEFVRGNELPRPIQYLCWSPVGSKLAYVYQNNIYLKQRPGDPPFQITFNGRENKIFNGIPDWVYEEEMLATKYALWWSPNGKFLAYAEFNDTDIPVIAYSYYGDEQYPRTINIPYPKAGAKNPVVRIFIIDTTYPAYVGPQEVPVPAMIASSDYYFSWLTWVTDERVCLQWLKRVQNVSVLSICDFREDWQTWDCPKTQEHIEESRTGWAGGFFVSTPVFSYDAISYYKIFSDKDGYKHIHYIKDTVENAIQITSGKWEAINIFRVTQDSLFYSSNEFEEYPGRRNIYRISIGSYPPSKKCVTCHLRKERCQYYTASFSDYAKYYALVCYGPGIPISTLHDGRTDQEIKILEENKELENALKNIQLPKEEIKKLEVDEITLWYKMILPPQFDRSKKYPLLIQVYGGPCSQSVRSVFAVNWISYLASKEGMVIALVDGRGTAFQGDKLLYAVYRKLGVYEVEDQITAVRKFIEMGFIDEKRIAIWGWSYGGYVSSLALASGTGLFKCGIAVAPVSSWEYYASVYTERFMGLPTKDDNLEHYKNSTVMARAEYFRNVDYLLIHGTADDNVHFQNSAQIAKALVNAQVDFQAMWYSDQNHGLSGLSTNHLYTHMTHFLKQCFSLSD
# Procedure, shortened: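 Recombinant human FAP, 10 ng per reaction, in 50 mM HEPES pH 7.2 with 150 mM NaCl, 0.1 mg/ml BSA, 1 mM EDTA; HyLite Fluor 488/QXL 520 FRET peptide of human FGF21 sequence at 6 μM final, ≤0.1% DMSO, 37° C. IC50 from 8-point curves by four-parameter logistic fit.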
# DPP4 = DPP4 (Homo sapiens, UniProt P27487); experiment: DPP4 inhibition, fluorogenic substrate H-Gly-Pro-AMC; parameters: purchased R&D Systems; conditions: recombinant human DPP4
# Sequence of DPP4 (P27487 whole entry): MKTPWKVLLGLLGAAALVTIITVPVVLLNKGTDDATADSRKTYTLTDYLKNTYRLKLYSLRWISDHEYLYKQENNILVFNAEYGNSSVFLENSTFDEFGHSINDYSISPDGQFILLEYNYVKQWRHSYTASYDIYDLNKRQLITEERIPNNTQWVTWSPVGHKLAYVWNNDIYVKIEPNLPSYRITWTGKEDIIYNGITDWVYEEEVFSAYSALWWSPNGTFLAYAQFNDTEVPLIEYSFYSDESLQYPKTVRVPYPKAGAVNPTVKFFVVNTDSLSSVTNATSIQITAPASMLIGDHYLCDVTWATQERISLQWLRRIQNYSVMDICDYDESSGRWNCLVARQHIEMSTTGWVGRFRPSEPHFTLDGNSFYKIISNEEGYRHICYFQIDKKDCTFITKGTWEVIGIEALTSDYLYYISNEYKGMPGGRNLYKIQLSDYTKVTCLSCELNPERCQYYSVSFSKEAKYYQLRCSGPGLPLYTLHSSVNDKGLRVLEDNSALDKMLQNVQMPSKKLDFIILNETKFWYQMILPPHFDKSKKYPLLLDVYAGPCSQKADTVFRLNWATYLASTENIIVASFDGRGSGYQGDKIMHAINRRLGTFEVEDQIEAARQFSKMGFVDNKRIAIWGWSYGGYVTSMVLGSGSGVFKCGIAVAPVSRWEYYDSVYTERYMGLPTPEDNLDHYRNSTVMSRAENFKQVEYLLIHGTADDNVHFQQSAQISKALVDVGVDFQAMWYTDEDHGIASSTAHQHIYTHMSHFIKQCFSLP
# recombinant human DPP9 = target: T4, recombinant human DPP9 (Homo sapiens, UniProt Q86TI2); experiment: DPP9 inhibition, fluorogenic substrate H-Gly-Pro-AMC; conditions: recombinant human DPP9
# T4 construct: purchased R&D Systems
# T4 sequence (Q86TI2 whole entry): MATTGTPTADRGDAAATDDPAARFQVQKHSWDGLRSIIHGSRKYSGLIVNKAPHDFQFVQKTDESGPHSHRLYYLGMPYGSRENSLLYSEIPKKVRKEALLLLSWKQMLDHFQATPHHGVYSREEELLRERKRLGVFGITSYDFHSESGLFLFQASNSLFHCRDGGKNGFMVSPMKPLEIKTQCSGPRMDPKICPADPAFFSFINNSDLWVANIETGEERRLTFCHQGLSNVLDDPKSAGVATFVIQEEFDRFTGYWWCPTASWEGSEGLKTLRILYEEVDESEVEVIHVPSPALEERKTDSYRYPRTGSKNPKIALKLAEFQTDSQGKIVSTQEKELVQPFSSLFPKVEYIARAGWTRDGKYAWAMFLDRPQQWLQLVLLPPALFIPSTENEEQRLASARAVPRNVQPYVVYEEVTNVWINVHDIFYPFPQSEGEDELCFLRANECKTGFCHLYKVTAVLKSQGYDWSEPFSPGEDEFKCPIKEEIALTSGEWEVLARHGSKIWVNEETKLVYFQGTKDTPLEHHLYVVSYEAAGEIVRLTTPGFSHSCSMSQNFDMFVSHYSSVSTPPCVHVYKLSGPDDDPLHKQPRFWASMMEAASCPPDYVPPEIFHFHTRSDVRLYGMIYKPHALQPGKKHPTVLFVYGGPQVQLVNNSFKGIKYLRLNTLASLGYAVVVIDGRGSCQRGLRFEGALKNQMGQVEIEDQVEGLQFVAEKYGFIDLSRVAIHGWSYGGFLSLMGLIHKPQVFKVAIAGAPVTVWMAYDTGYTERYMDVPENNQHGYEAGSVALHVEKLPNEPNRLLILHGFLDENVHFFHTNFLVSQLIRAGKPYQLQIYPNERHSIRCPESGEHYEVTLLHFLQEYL
# Procedure, shortened: as §1
SMILES,IC50 (recombinant human PREP) [nM],IC50 (recombinant human DPP7) [µM],IC50 (Recombinant human FAP) [µM],IC50 (DPP4) [µM],IC50 (recombinant human DPP9) [µM]
"N#C[C@@H]1C[C@H](F)CN1C(=O)CN1CC[C@H](Nc2ccc(O)c3ncccc23)C1 [Example 276, (2S,4S)-4-fluoro-1-[2-[(3S)-3-[(8-hydroxy-5-quinolyl)amino]pyrrolidin-1-yl]acetyl]pyrrolidine-2-carbonitrile]",3030,3.49,0.014,0.977,5.33
"Cc1cc(N[C@H]2CCN(CC(=O)N3C[C@@H](F)C[C@H]3C#N)C2)cc2cccnc12 [Example 277, (2S,4S)-4-fluoro-1-[2-[(3S)-3-[(8-methyl-6-quinolyl)amino]pyrrolidin-1-yl]acetyl]pyrrolidine-2-carbonitrile]",1230,0.193,0.003,1.04,0.74
"N#C[C@@H]1C[C@H](F)CN1C(=O)CN1CC[C@H](Nc2cc(F)c3ncccc3c2)C1 [Example 278, (2S,4S)-4-fluoro-1-[2-[(3S)-3-[(8-fluoro-6-quinolyl)amino]pyrrolidin-1-yl]acetyl]pyrrolidine-2-carbonitrile]",1280,0.615,0.0035,0.61,0.593
"N#C[C@@H]1C[C@H](F)CN1C(=O)CN1CC[C@H](Nc2cc(Cl)c3ncccc3c2)C1 [Example 279, (2S,4S)-4-fluoro-1-[2-[(3S)-3-[(8-chloro-6-quinolyl)amino]pyrrolidin-1-yl]acetyl]pyrrolidine-2-carbonitrile]",637,0.398,0.0015,0.254,0.614
"N#C[C@@H]1C[C@H](F)CN1C(=O)CN1CC[C@H](Nc2cc(C(F)(F)F)c3ncccc3c2)C1 [Example 280, (2S,4S)-4-fluoro-1-[2-[(3S)-3-[[8-(trifluoromethyl)-6-quinolyl]amino]pyrrolidin-1-yl]acetyl]pyrrolidine-2-carbonitrile]",970,0.184,0.0021,0.839,0.674
"CN(C)C(=O)c1ccc(N[C@H]2CCN(CC(=O)N3C[C@@H](F)C[C@H]3C#N)C2)c2cccnc12 [Example 282, N,N-dimethyl-5-[[(3S)-1-[2-oxo-2-[(2S,4S)-2-cyano-4-fluoro-pyrrolidin-1-yl]ethyl]pyrrolidin-3-yl]amino]quinoline-8-carboxamide]",5060,0.241,0.0058,3.47,4.85
"CN(C(=O)c1ccc(N[C@H]2CCN(CC(=O)N3C[C@@H](F)C[C@H]3C#N)C2)c2cccnc12)c1ccccc1 [Example 284, N-methyl-N-phenyl-5-[[(3S)-1-[2-oxo-2-[(2S,4S)-2-cyano-4-fluoro-pyrrolidin-1-yl]ethyl]pyrrolidin-3-yl]amino]quinoline-8-carboxamide]",574,0.932,0.0106,2.39,1.64
"CN(Cc1ccccc1)C(=O)c1ccc(N[C@H]2CCN(CC(=O)N3C[C@@H](F)C[C@H]3C#N)C2)c2cccnc12 [Example 285, N-benzyl-N-methyl-5-[[(3S)-1-[2-oxo-2-[(2S,4S)-2-cyano-4-fluoro-pyrrolidin-1-yl]ethyl]pyrrolidin-3-yl]amino]quinoline-8-carboxamide]",2450,0.333,0.0039,2.5,1.08
"CN(Cc1ccccc1)C(=O)c1ccc(N[C@H]2CCN(CC(=O)N3CCC[C@H]3C#N)C2)c2cccnc12 [Example 288, N-benzyl-N-methyl-5-[[(3S)-1-[2-oxo-2-[(2S)-2-cyanopyrrolidin-1-yl]ethyl]pyrrolidin-3-yl]amino]quinoline-8-carboxamide]",11400,0.677,0.014,18.5,1.21
"N#C[C@@H]1CCCN1C(=O)CN1CC[C@H](Nc2ccc(C(=O)Nc3cccnc3)c3ncccc23)C1 [Example 290, N-(3-pyridyl)-5-[[(3S)-1-[2-oxo-2-[(2S)-2-cyanopyrrolidin-1-yl]ethyl]pyrrolidin-3-yl]amino]quinoline-8-carboxamide]",429,0.121,0.0011,0.926,0.567
"N#C[C@@H]1CCCN1C(=O)CN1CC[C@H](Nc2ccc(C(=O)Nc3ccncc3)c3ncccc23)C1 [Example 291, N-(4-pyridyl)-5-[[(3S)-1-[2-oxo-2-[(2S)-2-cyanopyrrolidin-1-yl]ethyl]pyrrolidin-3-yl]amino]quinoline-8-carboxamide]",2110,0.173,0.0044,12.9,2.84
"N#C[C@@H]1C[C@H](F)CN1C(=O)CN1CC[C@H](Nc2ccc(C(=O)Nc3ccncc3)c3ncccc23)C1 [Example 292, N-(4-pyridyl)-5-[[(3S)-1-[2-oxo-2-[(2S,4S)-2-cyano-4-fluoro-pyrrolidin-1-yl]ethyl]pyrrolidin-3-yl]amino]quinoline-8-carboxamide]",1470,0.163,0.0013,5.18,0.371
"N#C[C@@H]1CCCN1C(=O)CN1CC[C@H](Nc2ccc(C(=O)Nc3ccccn3)c3ncccc23)C1 [Example 293, N-(2-pyridyl)-5-[[(3S)-1-[2-oxo-2-[(2S)-2-cyanopyrrolidin-1-yl]ethyl]pyrrolidin-3-yl]amino]quinoline-8-carboxamide]",422,0.122,0.0008,2.67,1.25
"N#C[C@@H]1C[C@H](F)CN1C(=O)CN1CC[C@H](Nc2ccc(C(=O)Nc3cccnc3)c3ncccc23)C1 [Example 295, N-(3-pyridyl)-5-[[(3S)-1-[2-oxo-2-[(2S,4S)-2-cyano-4-fluoro-pyrrolidin-1-yl]ethyl]pyrrolidin-3-yl]amino]quinoline-8-carboxamide]",724,0.0641,0.0007,0.865,0.0878
"CC(=O)Nc1ccc(N[C@H]2CCN(CC(=O)N3CCC[C@H]3C#N)C2)c2cccnc12 [Example 296, N-[5-[[(3S)-1-[2-oxo-2-[(2S)-2-cyanopyrrolidin-1-yl]ethyl]pyrrolidin-3-yl]amino]-8-quinolyl]acetamide]",6440,0.142,0.0047,15.6,10.6
"CC(=O)Nc1ccc(N[C@H]2CCN(CC(=O)N3C[C@@H](F)C[C@H]3C#N)C2)c2cccnc12 [Example 297, N-[5-[[(3S)-1-[2-oxo-2-[(2S,4S)-2-cyano-4-fluoro-pyrrolidin-1-yl]ethyl]pyrrolidin-3-yl]amino]-8-quinolyl]acetamide]",4750,0.0135,0.0029,2.81,4.2
